Reference: patent US20150299182A1, “CRYSTALLINE FORMS OF (1S)-1-[5-(AMINO)-1,2,4-THIADIAZOL-3-YL]ETHANE-1,2-DIOL” (Array BioPharma Inc., priority 2012, published 2015)
“Also recorded” adds a separate entry of the source. Counter-ions that a name gives are not always drawn.

Experiments:
[1] = Exposure to 95% relative humidity chamber/jar, then XRPD; type: physicochemical
Procedure: The DSC curve indicates a broad endotherm around 150° C. (attributed to desolvation), and one sharp endotherm around 193° C. (attributed to a melt). The TG curve indicates a 5.0% weight loss up to 175° C.
The phosphate salt Form D material was generated from desolvating Form C, and a representative XRPD pattern is shown in FIG. 34. The sample appears to be crystalline with an irregular morphology. The DSC curve indicates a sharp endotherm around 193° C. (attributed to a melt). […] The material appears to retain this sorbed water upon drying down to 15% relative humidity; however, upon reaching 5% relative humidity the material losses all of its sorbed water and returns to dry weight.

[2] = Moisture balance / vapor sorption (hygroscopicity); type: physicochemical; conditions: for phase post vapor sorption experiment: based on XRPD results; for hygroscopicity: 5% to 95% relative humidity; for relative humidity above which the material is hygroscopic: vapor sorption curve; for relative humidity by which the material fully re-hydrates: after drying to 5% relative humidity; for sorbed water retained: upon drying back down to ambient relative humidity
Procedure: Moisture balance data was collected using a VTI SGA 100 or SGA CX symmetrical vapor sorption analyzer. Relative humidity was varied in increments or 5%, starting at 5% relative humidity thereby increasing to 95% relative humidity, and then undergoing a drying cycle back to 5% relative humidity. Equilibrium criteria was set at 0.01% weight change in 1 minute with a max equilibrium time of 180 minutes. Approximately 1-15 mg of sample was used.

[3] = Storage at ambient conditions (form conversion); type: physicochemical; conditions: stored at ambient conditions
[4] = Chemical and physical solid state stability on storage; conditions: for form change on storage: up to 4 months (phosphate salt up to 6 weeks)
Procedure: (§1) Chemical and physical stability was initiated on these forms and samples were stored at 60° C., 40° C./75% RH, 25° C./60% RH, and 5° C.

[5] = 4 months
Procedure: as §1

[6] = Thermal stability characteristics; type: physicochemical
Procedure: The thermal properties of AMG151 samples were characterized using a DSC Q1000 or DSC Q 100, TA Instruments, differential scanning calorimetry, and a TGA Q 500, TA Instruments, thermogravimetric analyzer. Data analysis was performed utilizing Universal Analysis 2000, TA Instruments. Heating rates of 10° C./min were used over a variety of temperature ranges for differential scanning calorimetry and thermogravimetric analysis. Samples ranging from <1-5 mg were prepared in crimped or open aluminum pans for DSC analysis.

[7] = vapor sorption, as high as 95% relative humidity

SMILES: Cc1ncccc1Oc1cc(Sc2ccccn2)cnc1Nc1nc([C@H](O)CO)ns1 [phosphate salt Form C, (1S)-1-[5-({3-[(2-methylpyridin-3-yl)oxy]-5-(pyridin-2-ylsulfanyl)pyridin-2-yl}amino)-1,2,4-thiadiazol-3-yl]ethane-1,2-diol]
- form after exposure to 95% relative humidity [1]: converted to Form A
- stability of the phase as a function of relative humidity [2]: unstable as a function of ambient relative humidity

SMILES: Cc1ncccc1Oc1cc(Sc2ccccn2)cnc1Nc1nc([C@H](O)CO)ns1 [Amorphous AMG151, (1S)-1-[5-({3-[(2-methylpyridin-3-yl)oxy]-5-(pyridin-2-ylsulfanyl)pyridin-2-yl}amino)-1,2,4-thiadiazol-3-yl]ethane-1,2-diol]
- phase post vapor sorption experiment [2]: remained unchanged
- hygroscopicity ([2]; vapor sorption): hygroscopic

SMILES: Cc1ncccc1Oc1cc(Sc2ccccn2)cnc1Nc1nc([C@H](O)CO)ns1 [HCl salt Form A, (1S)-1-[5-({3-[(2-methylpyridin-3-yl)oxy]-5-(pyridin-2-ylsulfanyl)pyridin-2-yl}amino)-1,2,4-thiadiazol-3-yl]ethane-1,2-diol]
- phase post vapor sorption experiment [2]: converted to an amorphous phase
- relative humidity above which the material is hygroscopic [2]: above 55 % relative humidity
- hygroscopicity ([2]; vapor sorption): hygroscopic
- weight change [2, 7]: 9%

SMILES: Cc1ncccc1Oc1cc(Sc2ccccn2)cnc1Nc1nc([C@H](O)CO)ns1 [phosphate salt Form D, (1S)-1-[5-({3-[(2-methylpyridin-3-yl)oxy]-5-(pyridin-2-ylsulfanyl)pyridin-2-yl}amino)-1,2,4-thiadiazol-3-yl]ethane-1,2-diol]
- form after exposure to 95% relative humidity [1]: convert to Form E
- stability of the phase as a function of relative humidity [2]: unstable as a function of ambient relative humidity
- weight change ([2]; around 75% relative humidity (appears to convert to a mono-hydrate)): 3.0%
- phase post vapor sorption experiment [2]: remained unchanged
- relative humidity above which the material is hygroscopic [2]: above 55 % relative humidity
- hygroscopicity ([2]; vapor sorption): hygroscopic

SMILES: Cc1ncccc1Oc1cc(Sc2ccccn2)cnc1Nc1nc([C@H](O)CO)ns1 [phosphate salt Form A, (1S)-1-[5-({3-[(2-methylpyridin-3-yl)oxy]-5-(pyridin-2-ylsulfanyl)pyridin-2-yl}amino)-1,2,4-thiadiazol-3-yl]ethane-1,2-diol]
- relative humidity by which the material fully re-hydrates [2]: ≤ 55 % relative humidity
- phase post vapor sorption experiment [2]: remained unchanged
- hygroscopicity ([2]; vapor sorption): non-hygroscopic
- weight change [2, 7]: 0.8%

SMILES: Cc1ncccc1Oc1cc(Sc2ccccn2)cnc1Nc1nc([C@H](O)CO)ns1 [Form G, (1S)-1-[5-({3-[(2-methylpyridin-3-yl)oxy]-5-(pyridin-2-ylsulfanyl)pyridin-2-yl}amino)-1,2,4-thiadiazol-3-yl]ethane-1,2-diol]
- form conversion on storage [3]: readily convert to Form F

SMILES: Cc1ncccc1Oc1cc(Sc2ccccn2)cnc1Nc1nc([C@H](O)CO)ns1 [phosphate salt Form E, (1S)-1-[5-({3-[(2-methylpyridin-3-yl)oxy]-5-(pyridin-2-ylsulfanyl)pyridin-2-yl}amino)-1,2,4-thiadiazol-3-yl]ethane-1,2-diol]
- stability of the phase as a function of relative humidity [2]: unstable as a function of ambient relative humidity
- relative humidity by which the material fully re-hydrates [2]: ≤ 65 % relative humidity
- relative humidity above which the material is hygroscopic [2]: Above 65 % relative humidity
- hygroscopicity ([2]; vapor sorption): slightly hygroscopic

SMILES: Cc1ncccc1Oc1cc(Sc2ccccn2)cnc1Nc1nc([C@H](O)CO)ns1 [phosphate salt, (1S)-1-[5-({3-[(2-methylpyridin-3-yl)oxy]-5-(pyridin-2-ylsulfanyl)pyridin-2-yl}amino)-1,2,4-thiadiazol-3-yl]ethane-1,2-diol]
- time found stable ([4]; 40° C./75% RH): up to 6 weeks
- form change on storage ([4]; 40° C./75% RH): no form change
- time found stable ([4]; 60° C.): up to 6 weeks
- form change on storage ([4]; 60° C.): no form change

SMILES: Cc1ncccc1Oc1cc(Sc2ccccn2)cnc1Nc1nc([C@H](O)CO)ns1 [HCl salt Form B, (1S)-1-[5-({3-[(2-methylpyridin-3-yl)oxy]-5-(pyridin-2-ylsulfanyl)pyridin-2-yl}amino)-1,2,4-thiadiazol-3-yl]ethane-1,2-diol]
- phase post vapor sorption experiment [2]: converted to an amorphous phase
- relative humidity above which the material is hygroscopic [2]: above 75 % relative humidity
- hygroscopicity ([2]; vapor sorption): hygroscopic
- weight change [2, 7]: 20%

SMILES: Cc1ncccc1Oc1cc(Sc2ccccn2)cnc1Nc1nc([C@H](O)CO)ns1 [MSA salt Form B, (1S)-1-[5-({3-[(2-methylpyridin-3-yl)oxy]-5-(pyridin-2-ylsulfanyl)pyridin-2-yl}amino)-1,2,4-thiadiazol-3-yl]ethane-1,2-diol]
- stability of the phase as a function of relative humidity [2]: unstable as a function of relative humidity
- phase post vapor sorption experiment [2]: converted to Form C
- sorbed water retained [2]: 2-3%
- relative humidity above which the material is hygroscopic [2]: above 65 % relative humidity
- hygroscopicity ([2]; vapor sorption): hygroscopic
- weight change [2, 7]: 16.5%

SMILES: Cc1ncccc1Oc1cc(Sc2ccccn2)cnc1Nc1nc([C@H](O)CO)ns1 [MSA salt Form C, (1S)-1-[5-({3-[(2-methylpyridin-3-yl)oxy]-5-(pyridin-2-ylsulfanyl)pyridin-2-yl}amino)-1,2,4-thiadiazol-3-yl]ethane-1,2-diol]
- phase post vapor sorption experiment [2]: remained unchanged
- sorbed water retained [2]: 2-3%
- relative humidity above which the material is hygroscopic [2]: above 75 % relative humidity
- hygroscopicity ([2]; vapor sorption): hygroscopic
- weight change [2, 7]: 18%

SMILES: Cc1ncccc1Oc1cc(Sc2ccccn2)cnc1Nc1nc([C@H](O)CO)ns1 [Form F, (1S)-1-[5-({3-[(2-methylpyridin-3-yl)oxy]-5-(pyridin-2-ylsulfanyl)pyridin-2-yl}amino)-1,2,4-thiadiazol-3-yl]ethane-1,2-diol]
- time found chemically stable [5]: up to 4 months
- form change on storage ([4]; 40° C./75% RH): no form change
- form change on storage ([4]; 60° C., listed as free base form F): no form change
- phase post vapor sorption experiment [2]: remained unchanged
- hygroscopicity ([2]; vapor sorption): non-hygroscopic

SMILES: Cc1ncccc1Oc1cc(Sc2ccccn2)cnc1Nc1nc([C@H](O)CO)ns1 [phosphate salt Form B, (1S)-1-[5-({3-[(2-methylpyridin-3-yl)oxy]-5-(pyridin-2-ylsulfanyl)pyridin-2-yl}amino)-1,2,4-thiadiazol-3-yl]ethane-1,2-diol]
- stability of the phase as a function of relative humidity [2]: unstable as a function of ambient relative humidity
- phase post vapor sorption experiment [2]: converted to Form A
- weight loss upon drying ([2]; upon drying down to 5% relative humidity): 8.5%
- hygroscopicity ([2]; vapor sorption): slightly hygroscopic
- weight change [2, 7]: 3.5%

SMILES: Cc1ncccc1Oc1cc(Sc2ccccn2)cnc1Nc1nc([C@H](O)CO)ns1 [Form A, (1S)-1-[5-({3-[(2-methylpyridin-3-yl)oxy]-5-(pyridin-2-ylsulfanyl)pyridin-2-yl}amino)-1,2,4-thiadiazol-3-yl]ethane-1,2-diol]
- phase post vapor sorption experiment [2]: remained unchanged
- hygroscopicity ([2]; vapor sorption): non-hygroscopic

SMILES: Cc1ncccc1Oc1cc(Sc2ccccn2)cnc1Nc1nc([C@H](O)CO)ns1 [fumarate co-crystal Form A, (1S)-1-[5-({3-[(2-methylpyridin-3-yl)oxy]-5-(pyridin-2-ylsulfanyl)pyridin-2-yl}amino)-1,2,4-thiadiazol-3-yl]ethane-1,2-diol]
- form change on storage ([4]; 40° C./75% RH): no form change
- form change on storage ([4]; 60° C.): no form change
- phase post vapor sorption experiment [2]: remained unchanged
- hygroscopicity ([2]; vapor sorption): non-hygroscopic
- weight change [2, 7]: 0.075%

SMILES: Cc1ncccc1Oc1cc(Sc2ccccn2)cnc1Nc1nc([C@H](O)CO)ns1 [mono-hydrochloride salt Form C, (1S)-1-[5-({3-[(2-methylpyridin-3-yl)oxy]-5-(pyridin-2-ylsulfanyl)pyridin-2-yl}amino)-1,2,4-thiadiazol-3-yl]ethane-1,2-diol]
- thermal stability [6]: less preferred thermal stability characteristics
- hygroscopicity ([2]; vapor sorption): hygroscopic

SMILES: Cc1ncccc1Oc1cc(Sc2ccccn2)cnc1Nc1nc([C@H](O)CO)ns1 [Hydrate Form C, (1S)-1-[5-({3-[(2-methylpyridin-3-yl)oxy]-5-(pyridin-2-ylsulfanyl)pyridin-2-yl}amino)-1,2,4-thiadiazol-3-yl]ethane-1,2-diol]
- form change on storage ([4]; 40° C./75% RH): no form change
- time after which conversion to Form A was found ([4]; 60° C.): 2 weeks
- form change on storage ([4]; 60° C., listed as free base mono-hydrate): converted to Form A
- phase post vapor sorption experiment [2]: remained unchanged
- wt change ([2]; from 5% to 95% relative humidity): < 0.5%
- hygroscopicity ([2]; vapor sorption): non hygroscopic; also recorded: non-hygroscopic
- weight change [2, 7]: 0.25%
